According to patent US20060074083A1, “Cyclic and acyclic propenones for treating CNS disorders” (MERZ PHARMA GMBH & CO. KGAA, priority 2004, published 2006):

SMILES	melting point [°C]
COc1cc(/C=C/C(=O)C23CC4CC(CC(C4)C2)C3)cc(OC)c1 [Example 4, 1-Adamantan-1-yl-3-(3,5-dimethoxy-phenyl)-propenone]	118 to 119
O=C(/C=C/c1cnc2ccccc2c1)C1CC1 [Example 5, 1-Cyclopropyl-3-quinolin-3-yl-propenone]	101 to 102
O=C(/C=C/c1cnc2ccccc2c1)C12CC3CC(CC(C3)C1)C2 [Example 7, 1-Adamantan-1-yl-3-quinolin-3-yl-propenone]	169 to 171
COc1ccc(/C=C/C(=O)C23CC4CC(CC(C4)C2)C3)cc1C [Example 10, 1-Adamantan-1-yl-3-(4-methoxy-3-methyl-phenyl)-propenone]	138 to 140
O=C(/C=C/c1ccc2c(c1)OCCO2)C12CC3CC(CC(C3)C1)C2 [Example 11, 1-Adamantan-1-yl-3-(2,3-dihydrobenzo[1,4]dioxin-6-yl)-propenone]	125 to 127
